Experiment [1] deals with T1, BTK enzyme (recombinant full-length BTK, hBTK) (Homo sapiens, UniProt Q06187).
T1 construct: recombinant protein from baculovirus-transfected Sf9 cells: full-length BTK, 6HIS-tag cleaved; 6HIS (cleaved yes); made in house; host or cells: baculovirus-transfected Sf9 cells
Put plainly: BTK enzyme activity assay, LANCE TR-FRET. The experiment is classed as biochemical. The conditions noted are these: 50 pM hBTK, 2 μM biotin-A5-peptide, 25 μM ATP; 60 min compound & enzyme incubation; read-out: IC50 BTK activity value. For orientation: TR-FRET usually uses a lanthanide donor and a delayed reading to cut background.

Another experiment has as its system HeLa cells. Put plainly: [3H]Adenosine uptake functional cellular assay. The experiment is classed as cell-based. The conditions noted are these: Homo sapiens, HeLa, accumulation of [3H]adenosine into HeLa cells; compound range 10 μM to […]; read-out: Adenosine uptake inhibition IC50. Put shortly:
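Inhibition of adenosine uptake was measured in HeLa cells (ATCC CCL-2) by following accumulation of tritiated adenosine. Cells were kept overnight at 37° C. with 5% (v/v) CO2, then switched to 40 μL HBSS plus 5% (v/v) FBS. 20 μL of 500 nM [3H]adenosine was added, and uptake was counted on a Topcount NXT reader.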

T1 sequence (Q06187 whole entry): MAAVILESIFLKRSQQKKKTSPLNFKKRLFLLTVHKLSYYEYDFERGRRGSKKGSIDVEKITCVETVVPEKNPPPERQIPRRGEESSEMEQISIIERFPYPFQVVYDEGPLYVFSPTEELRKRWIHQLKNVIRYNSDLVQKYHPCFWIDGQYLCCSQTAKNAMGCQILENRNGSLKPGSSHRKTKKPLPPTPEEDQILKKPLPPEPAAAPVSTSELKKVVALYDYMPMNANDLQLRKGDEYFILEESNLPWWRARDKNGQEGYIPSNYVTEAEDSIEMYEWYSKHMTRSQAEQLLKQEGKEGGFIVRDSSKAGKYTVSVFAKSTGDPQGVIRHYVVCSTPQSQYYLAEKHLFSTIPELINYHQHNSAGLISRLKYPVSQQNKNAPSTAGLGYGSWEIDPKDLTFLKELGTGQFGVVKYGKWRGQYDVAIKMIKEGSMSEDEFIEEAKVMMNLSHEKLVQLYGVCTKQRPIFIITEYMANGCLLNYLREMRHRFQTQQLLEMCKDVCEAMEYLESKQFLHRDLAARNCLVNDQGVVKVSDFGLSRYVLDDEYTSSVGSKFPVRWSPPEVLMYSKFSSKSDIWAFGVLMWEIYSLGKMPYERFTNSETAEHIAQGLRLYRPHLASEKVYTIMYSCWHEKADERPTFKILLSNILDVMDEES

As usually defined, the IC50 is the midpoint of a concentration-inhibition curve. Regarding `Nc1ncc(F)n2c([C@@H]3CC[C@H]4CCC(=O)N4C3)nc(-c3ccc(C(=O)Nc4cc(C(F)(F)F)ccn4)cc3)c12` [Example 160, 4-{8-amino-5-fluoro-3-[(6R,8aS)-3-oxooctahydroindolizin-6-yl]imidazo[1,5-a]pyrazin-1-yl}-N-[4-(trifluoromethyl)pyridin-2-yl]benzamide], the IC50 in experiment [1] amounted to 0.28 nM; in the experiment with HeLa cells it was 290 nM.
The like results for `CCOc1cc(C(=O)Nc2cc(C(F)(F)F)ccn2)ccc1-c1nc([C@@H]2CC[C@H]3CCC(=O)N3C2)n2c(F)cnc(N)c12` [Example 161, 4-{8-amino-5-fluoro-3-[(6R,8aS)-3-oxooctahydroindolizin-6-yl]imidazo[1,5-a]pyrazin-1-yl}-3-ethoxy-N-[4-(trifluoromethyl)pyridin-2-yl]benzamide] were, in that order, 0.99 nM and 1540 nM.
Take `COc1cc(C(=O)Nc2cc(C(F)(F)F)ccn2)ccc1-c1nc([C@@H]2CC[C@H]3CCC(=O)N3C2)n2c(F)cnc(N)c12` [Example 162, 4-{8-amino-5-fluoro-3-[(6R,8aS)-3-oxooctahydroindolizin-6-yl]imidazo[1,5-a]pyrazin-1-yl}-3-methoxy-N-[4-(trifluoromethyl)pyridin-2-yl]benzamide]: the IC50 in experiment [1] was 1.3 nM; with HeLa cells, 1540 nM.
The like results for `CCOc1cc(C(=O)Nc2cc(C(F)(F)F)n(C)n2)ccc1-c1nc([C@@H]2CC[C@H]3CCC(=O)N3C2)n2c(F)cnc(N)c12` [Example 163, 4-{8-amino-5-fluoro-3-[(6R,8aS)-3-oxooctahydroindolizin-6-yl]imidazo[1,5-a]pyrazin-1-yl}-3-ethoxy-N-[1-methyl-5-(trifluoromethyl)-1H-pyrazol-3-yl]benzamide] were, in that order, 3.1 nM and 2410 nM.
Regarding `CCOc1cc(C(=O)Nc2ncc(C)s2)ccc1-c1nc([C@@H]2CC[C@H]3CCC(=O)N3C2)n2c(F)cnc(N)c12` [Example 164, 4-{8-amino-5-fluoro-3-[(6R,8aS)-3-oxooctahydroindolizin-6-yl]imidazo[1,5-a]pyrazin-1-yl}-3-ethoxy-N-(5-methyl-1,3-thiazol-2-yl)benzamide], the IC50 in experiment [1] was found to be 1.9 nM; in the experiment on HeLa cells, 817 nM.
In the case of `Nc1ncc(F)n2c([C@@H]3CC[C@H]4CCC(=O)N4C3)nc(-c3ccc(C(=O)Nc4cc(C(F)(F)F)ccn4)cc3O)c12` [Example 165, 4-{8-amino-5-fluoro-3-[(6R,8aS)-3-oxooctahydroindolizin-6-yl]imidazo[1,5-a]pyrazin-1-yl}-3-hydroxy-N-[4-(trifluoromethyl)pyridin-2-yl]benzamide], the IC50 in experiment [1] was 2.3 nM; in the experiment with HeLa cells, 1540 nM.
The matching figures for `Nc1ncc(F)n2c([C@@H]3CC[C@H]4CCC(=O)N4C3)nc(-c3ccc(C(=O)Nc4cc(C(F)(F)F)ccn4)cc3F)c12` [Example 166, 4-{8-amino-5-fluoro-3-[(6R,8aS)-3-oxooctahydroindolizin-6-yl]imidazo[1,5-a]pyrazin-1-yl}-3-fluoro-N-[4-(trifluoromethyl)pyridin-2-yl]benzamide]: 0.34 nM and 296 nM.
Turning to `Nc1ncc(F)n2c([C@@H]3CC[C@H]4CCC(=O)N4C3)nc(-c3ccc(C(=O)Nc4cc(C5CC5)ccn4)cc3F)c12` [Example 167, 4-{8-amino-5-fluoro-3-[(6R,8aS)-3-oxooctahydroindolizin-6-yl]imidazo[1,5-a]pyrazin-1-yl}-N-(4-cyclopropylpyridin-2-yl)-3-fluorobenzamide], the IC50 amounted to 1.3 nM in experiment [1] and 318 nM with HeLa cells.
Take `Nc1ncc(F)n2c([C@@H]3CC[C@H]4CCC(=O)N4C3)nc(-c3ccc(C(=O)Nc4cc(C5CC5)ccn4)cc3)c12` [Example 168, 4-{8-amino-5-fluoro-3-[(6R,8aS)-3-oxooctahydroindolizin-6-yl]imidazo[1,5-a]pyrazin-1-yl}-N-(4-cyclopropylpyridin-2-yl)benzamide]: the IC50 was determined as 1.5 nM in experiment [1] and 285 nM with HeLa cells.
With `CCOc1cc(C(=O)Nc2cc(C(F)(F)F)ccn2)c(F)cc1-c1nc([C@@H]2CC[C@H]3CCC(=O)N3C2)n2c(F)cnc(N)c12` [Example 169, 4-{8-amino-5-fluoro-3-[(6R,8aS)-3-oxooctahydroindolizin-6-yl]imidazo[1,5-a]pyrazin-1-yl}-5-ethoxy-2-fluoro-N-[4-(trifluoromethyl)pyridin-2-yl]benzamide], the half-inhibitory concentration (IC50) in experiment [1] was 3.7 nM; in the experiment with HeLa cells, 2950 nM.
The matching figures for `Nc1nccn2c([C@@H]3CC[C@H]4CCC(=O)N4C3)nc(-c3ccc(C(=O)Nc4cc(C(F)(F)F)[nH]n4)cc3)c12` [Example 170, 4-(8-amino-3-((6R,8aS)-3-oxooctahydroindolizin-6-yl)imidazo[1,5-a]pyrazin-1-yl)-N-(5-(trifluoromethyl)-1H-pyrazol-3-yl)benzamide]: 36.9 nM and 6750 nM.
Turning to `Cc1cc(NC(=O)c2ccc(-c3nc([C@@H]4CC[C@H]5CCC(=O)N5C4)n4ccnc(N)c34)cc2)nn1C` [Example 175, 4-{8-amino-3-[(6R,8aS)-3-oxooctahydroindolizin-6-yl]imidazo[1,5-a]pyrazin-1-yl}-N-(1,5-dimethyl-1H-pyrazol-3-yl)benzamide], the IC50 in experiment [1] was found to be 6.5 nM; in the experiment with HeLa cells it was 725 nM.
The matching figures for `Cc1nsc(NC(=O)c2ccc(-c3nc([C@@H]4CC[C@H]5CCC(=O)N5C4)n4ccnc(N)c34)cc2)n1` [Example 176, 4-{8-amino-3-[(6R,8aS)-3-oxooctahydroindolizin-6-yl]imidazo[1,5-a]pyrazin-1-yl}-N-(3-methyl-1,2,4-thiadiazol-5-yl)benzamide]: 14.9 nM and 7810 nM.
The matching figures for `Nc1nccn2c([C@@H]3CC[C@H]4CCC(=O)N4C3)nc(-c3ccc(C(=O)Nc4nc(C(F)(F)F)c[nH]4)cc3)c12` [Example 177, 4-{8-amino-3-[(6R,8aS)-3-oxooctahydroindolizin-6-yl]imidazo[1,5-a]pyrazin-1-yl}-N-[4-(trifluoromethyl)-1H-imidazol-2-yl]benzamide]: 144 nM and 3320 nM.
Take `CCc1nsc(NC(=O)c2ccc(-c3nc([C@@H]4CC[C@H]5CCC(=O)N5C4)n4ccnc(N)c34)cc2)n1` [Example 178, 4-{8-amino-3-[(6R,8aS)-3-oxooctahydroindolizin-6-yl]imidazo[1,5-a]pyrazin-1-yl}-N-(3-ethyl-1,2,4-thiadiazol-5-yl)benzamide]: the figures for the IC50 (in experiment [1]; with HeLa cells) were 27.6 nM and 5490 nM, respectively.
As for `CC(C)c1nsc(NC(=O)c2ccc(-c3nc([C@@H]4CC[C@H]5CCC(=O)N5C4)n4ccnc(N)c34)cc2)n1` [Example 179, 4-{8-amino-3-[(6R,8aS)-3-oxooctahydroindolizin-6-yl]imidazo[1,5-a]pyrazin-1-yl}-N-[3-(1-methylethyl)-1,2,4-thiadiazol-5-yl]benzamide], the results for the concentration for half-maximal inhibition (IC50) (in experiment [1]; with HeLa cells) were 68.9 nM and 2370 nM, respectively.
For `Nc1nccn2c([C@@H]3CC[C@H]4CCC(=O)N4C3)nc(-c3ccc(C(=O)Nc4cc(C(F)(F)F)n(C5CCCC5)n4)cc3)c12` [Example 180, 4-{8-amino-3-[(6R,8aS)-3-oxooctahydroindolizin-6-yl]imidazo[1,5-a]pyrazin-1-yl}-N-[1-cyclopentyl-5-(trifluoromethyl)-1H-pyrazol-3-yl]benzamide], the IC50 is 285 nM in experiment [1] and 230 nM with HeLa cells.
`Cc1nnc(NC(=O)c2ccc(-c3nc([C@@H]4CC[C@H]5CCC(=O)N5C4)n4ccnc(N)c34)cc2)s1` [Example 182, 4-{8-amino-3-[(6R,8aS)-3-oxooctahydroindolizin-6-yl]imidazo[1,5-a]pyrazin-1-yl}-N-(5-methyl-1,3,4-thiadiazol-2-yl)benzamide]: the IC50 in experiment [1] amounted to 272 nM; in the experiment with HeLa cells, 3610 nM.
The like results for `Cn1nc(NC(=O)c2ccc(-c3nc([C@@H]4CC[C@H]5CCC(=O)N5C4)n4c(Cl)cnc(N)c34)cc2)cc1C(F)(F)F` [Example 183, 4-(8-amino-5-chloro-3-((6R,8aS)-3-oxooctahydroindolizin-6-yl)imidazo[1,5-a]pyrazin-1-yl)-N-(1-methyl-5-(trifluoromethyl)-1H-pyrazol-3-yl)benzamide] were, in that order, 0.64 nM and 470 nM.
For `CCn1nc(NC(=O)c2ccc(-c3nc([C@@H]4CC[C@H]5CCC(=O)N5C4)n4ccnc(N)c34)cc2)cc1C(F)(F)F` [Example 185, 4-{8-amino-3-[(6R,8aS)-3-oxooctahydroindolizin-6-yl]imidazo[1,5-a]pyrazin-1-yl}-N-[1-ethyl-5-(trifluoromethyl)-1H-pyrazol-3-yl]benzamide], the IC50 worked out at 237 nM in experiment [1] and 5390 nM in the experiment on HeLa cells.
The matching figures for `Cc1cc(C(=O)Nc2cc(C(F)(F)F)ccn2)ccc1-c1nc([C@@H]2CC[C@H]3CCC(=O)N3C2)n2ccnc(N)c12` [Example 187, 4-{8-amino-3-[(6R,8aS)-3-oxooctahydroindolizin-6-yl]imidazo[1,5-a]pyrazin-1-yl}-3-methyl-N-[4-(trifluoromethyl)pyridin-2-yl]benzamide]: 0.46 nM and 310 nM.
The matching figures for `COc1cc(C(=O)Nc2cc(C(F)(F)F)n(C)n2)ccc1-c1nc([C@@H]2CC[C@H]3CCC(=O)N3C2)n2ccnc(N)c12` [Example 188, 4-{8-amino-3-[(6R,8aS)-3-oxooctahydroindolizin-6-yl]imidazo[1,5-a]pyrazin-1-yl}-3-methoxy-N-[1-methyl-5-(trifluoromethyl)-1H-pyrazol-3-yl]benzamide]: 2.7 nM and 3690 nM.
